Measurements reported in paper PMC6715688, “Mycobacterial dynamin-like protein IniA mediates membrane fission” (Nature Communications, 2019).

Experiments:
IniA [1] = target: IniA (Mycolicibacterium smegmatis, UniProt I7FE16, K73A); test: isothermal titration calorimetry; type: binding
From the text: isothermal titration calorimetry on IniA | showing only a twofold reduction in affinity for GMPPNP or GTP | the mutant IniA largely maintained interactions with GDP

IniA [2] = target: IniA (Mycolicibacterium smegmatis, UniProt I7FE16); test: isothermal titration calorimetry; type: binding
Sequence of IniA (Mycolicibacterium smegmatis, UniProt I7FE16) (I7FE16 entry or part of it): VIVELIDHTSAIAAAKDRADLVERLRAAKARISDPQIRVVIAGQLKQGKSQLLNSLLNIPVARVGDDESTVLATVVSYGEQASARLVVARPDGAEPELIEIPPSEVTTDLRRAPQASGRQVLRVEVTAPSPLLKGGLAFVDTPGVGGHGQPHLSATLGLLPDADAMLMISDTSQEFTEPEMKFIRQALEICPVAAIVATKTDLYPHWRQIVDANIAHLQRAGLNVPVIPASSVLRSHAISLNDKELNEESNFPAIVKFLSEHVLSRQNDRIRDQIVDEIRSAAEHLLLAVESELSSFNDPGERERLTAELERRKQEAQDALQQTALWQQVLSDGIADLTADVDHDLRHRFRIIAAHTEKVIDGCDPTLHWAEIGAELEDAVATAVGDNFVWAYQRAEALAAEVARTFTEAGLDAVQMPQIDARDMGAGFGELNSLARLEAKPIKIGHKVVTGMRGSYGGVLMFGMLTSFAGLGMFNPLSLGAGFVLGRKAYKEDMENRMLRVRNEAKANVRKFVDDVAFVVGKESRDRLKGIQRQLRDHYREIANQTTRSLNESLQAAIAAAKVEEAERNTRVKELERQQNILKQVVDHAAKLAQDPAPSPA

Sequence of IniA (Mycolicibacterium smegmatis, UniProt I7FE16, K73A) (I7FE16 entry or part of it K73A): as the sequence (I7FE16 entry or part of it) above

Nc1nc2c(ncn2[C@@H]2O[C@H](COP(=O)(O)OP(=O)(O)O)[C@@H](O)[C@H]2O)c(=O)[nH]1 [GDP]
Kd (IniA [1]): ~1060 nM
Kd (IniA [2]): 750 nM

Nc1nc2c(ncn2[C@@H]2O[C@H](COP(=O)(O)OP(=O)(O)OP(=O)(O)O)[C@@H](O)[C@H]2O)c(=O)[nH]1 [GTP]
Kd (IniA [1]): ~1430 nM
Kd (IniA [2]): 740 nM

Nc1nc2c(ncn2[C@@H]2O[C@H](COP(=O)(O)OP(=O)(O)NP(=O)(O)O)[C@@H](O)[C@H]2O)c(=O)[nH]1 [GMPPNP]
Kd (IniA [1]): ~23200 nM
Kd (IniA [2]): 9010 nM
